Reference: ChEMBL document CHEMBL1138031, “3D QSAR studies of N-4-arylacryloylpiperazin-1-yl-phenyl-oxazolidinones: a novel class of antibacterial agents” (2006)
Values after ≈ are worked out from the molar mass of the structure shown.

System: Staphylococcus aureus
Test: Antibacterial activity against Staphylococcus aureus ATCC 25923
Type: functional
Conditions: for MIC: Staphylococcus aureus, ATCC 25923

Compound	Log (1/C)	MIC [µg/mL]	log(1/C)
CC(=O)NC[C@H]1CN(c2ccc(N3CCN(C(=O)/C=C/c4ccc(O)c(O)c4)CC3)c(F)c2)C(=O)O1	1.4936	16 (≈ 32.1 µM)	
CC(=O)NC[C@H]1CN(c2ccc(N3CCN(C(=O)/C=C/c4ccc(OC(=O)C(C)(C)C)cc4)CC3)c(F)c2)C(=O)O1	1.5492	> 16	
CC(=O)NC[C@H]1CN(c2ccc(N3CCN(C(=O)/C=C/c4ccc(F)c(F)c4)CC3)c(F)c2)C(=O)O1	1.4971	> 16	
C/C(S)=N/C[C@H]1CN(c2ccc(N3CCN(C(=O)/C=C/c4ccccc4)CC3)c(F)c2)C(=O)O1	3.2857	0.25 (≈ 0.518 µM)	
CC(=O)NC[C@H]1CN(c2ccc(N3CCN(C(=O)/C=C/c4ccc(OS(C)(=O)=O)cc4)CC3)c(F)c2)C(=O)O1	1.8456	8 (≈ 14.3 µM)	
CC(=O)NC[C@H]1CN(c2ccc(N3CCN(C(=O)/C=C/c4ccncc4)CC3)c(F)c2)C(=O)O1	2.3688	2 (≈ 4.28 µM)	
CC(=O)NC[C@H]1CN(c2ccc(N3CCN(C(=O)/C=C/c4ccc[nH]4)CC3)c(F)c2)C(=O)O1	2.3575	2 (≈ 4.39 µM)	
CC(=O)NC[C@H]1CN(c2ccc(N3CCN(C(=O)/C=C/c4ccsc4)CC3)c(F)c2)C(=O)O1	2.3735	2 (≈ 4.23 µM)	
CC(=O)NC[C@H]1CN(c2ccc(N3CCN(C(=O)/C=C/c4ccc([N+](=O)[O-])o4)CC3)c(F)c2)C(=O)O1	3.3024	0.25 (≈ 0.499 µM)	
CC(=O)NC[C@H]1CN(c2ccc(N3CCN(C(=O)/C=C/c4ccco4)CC3)c(F)c2)C(=O)O1	2.3584	2 (≈ 4.38 µM)	
CC(=O)NC[C@H]1CN(c2ccc(N3CCN(C(=O)/C=C/c4cccs4)CC3)c(F)c2)C(=O)O1	2.6745	1 (≈ 2.12 µM)	
CC(=O)NC[C@H]1CN(c2ccc(N3CCN(C/C=C/c4ccco4)CC3)c(F)c2)C(=O)O1	2.0439	4 (≈ 9.04 µM)	
CC(=O)NC[C@H]1CN(c2ccc(N3CCN(C(=O)/C=C/c4ccc(C)o4)CC3)c(F)c2)C(=O)O1	2.0706	4 (≈ 8.5 µM)	
CC(=O)NC[C@H]1CN(c2ccc(N3CCN(C/C=C/c4ccc([N+](=O)[O-])o4)CC3)c(F)c2)C(=O)O1	2.387	2 (≈ 4.1 µM)	
NC(=S)NC[C@H]1CN(c2ccc(N3CCN(C(=O)/C=C/c4ccco4)CC3)c(F)c2)C(=O)O1	2.6754	1 (≈ 2.11 µM)	
CC(=O)NC[C@H]1CN(c2ccc(N3CCN(C(=O)/C=C/c4ccc(COC(C)=O)o4)CC3)c(F)c2)C(=O)O1	1.82	8 (≈ 15.1 µM)	
NC(=S)NC[C@H]1CN(c2ccc(N3CCN(C(=O)/C=C/c4cccs4)CC3)c(F)c2)C(=O)O1	2.9909	0.5 (≈ 1.02 µM)	
CC(=O)NC[C@H]1CN(c2ccc(N3CCN(C(=O)/C=C/c4ccc(CO)o4)CC3)c(F)c2)C(=O)O1	2.0851	4 (≈ 8.22 µM)	
NC(=S)NC[C@H]1CN(c2ccc(N3CCN(C(=O)/C=C/c4ccncc4)CC3)c(F)c2)C(=O)O1	2.0833	4 (≈ 8.25 µM)	
C/C(S)=N/C[C@H]1CN(c2ccc(N3CCN(C(=O)/C=C/c4cccs4)CC3)c(F)c2)C(=O)O1	3.2911	0.25 (≈ 0.512 µM)	

Compound	Log (1/C)	MIC [µg/mL]	log(1/C)
C/C(S)=N/C[C@H]1CN(c2ccc(N3CCN(C(=O)/C=C/c4ccc([N+](=O)[O-])o4)CC3)c(F)c2)C(=O)O1	3.316	0.25 (≈ 0.483 µM)	
CC(=O)NC[C@H]1CN(c2ccc(N3CCN(C(=O)/C=C/c4ccc([N+](=O)[O-])s4)CC3)c(F)c2)C(=O)O1	3.316	0.25 (≈ 0.483 µM)	
CC(=O)NC[C@H]1CN(c2ccc(N3CCN(C(=O)/C=C/c4ccoc4)CC3)c(F)c2)C(=O)O1	2.3584	2 (≈ 4.38 µM)	
CC(=O)NC[C@H]1CN(c2ccc(N3CCN(C(=O)/C=C/c4c[nH]c5ccccc45)CC3)c(F)c2)C(=O)O1	2.4028	2 (≈ 3.96 µM)	
NC(=S)NC[C@H]1CN(c2ccc(N3CCN(C(=O)/C=C/c4ccc(O)cc4)CC3)c(F)c2)C(=O)O1	2.6986	1 (≈ 2 µM)	
CC(=O)NC[C@H]1CN(c2ccc(N3CCN(C(=O)/C=C/c4cccnc4)CC3)c(F)c2)C(=O)O1	2.6698	1 (≈ 2.14 µM)	
CC(C)(C)C(=O)Oc1ccc(/C=C/C(=O)N2CCN(c3ccc(N4C[C@H](CNC(N)=S)OC4=O)cc3F)CC2)cc1	1.5621	> 16	
CC(=O)NC[C@H]1CN(c2ccc(N3CCN(C(=O)/C=C/c4ccc(O)cc4)CC3)c(F)c2)C(=O)O1	2.3825	2 (≈ 4.14 µM)	
CC(=O)NC[C@H]1CN(c2ccc(N3CCN(C(=O)/C=C/c4cccc(O)c4)CC3)c(F)c2)C(=O)O1	2.3825	2 (≈ 4.14 µM)	
CC(=O)NC[C@H]1CN(c2ccc(N3CCN(C(=O)/C=C/c4ccccc4)CC3)c(F)c2)C(=O)O1	2.0669	4 (≈ 8.57 µM)	
CC(=O)NC[C@H]1CN(c2ccc(N3CCN(C(=O)/C=C/c4ccc(C(=O)O)o4)CC3)c(F)c2)C(=O)O1	1.4953	> 16	
C/C(S)=N/C[C@H]1CN(c2ccc(N3CCN(C(=O)/C=C/c4ccncc4)CC3)c(F)c2)C(=O)O1	2.9855	0.5 (≈ 1.03 µM)	
CC(=O)NC[C@H]1CN(c2ccc(N3CCN(C(=O)/C=C/c4ccc(C=O)o4)CC3)c(F)c2)C(=O)O1	2.0833	4 (≈ 8.26 µM)	
C/C(S)=N/C[C@H]1CN(c2ccc(N3CCN(C(=O)/C=C/c4c[nH]c5ccccc45)CC3)c(F)c2)C(=O)O1	3.0184	0.5 (≈ 0.959 µM)	
NC(=S)NC[C@H]1CN(c2ccc(N3CCN(C(=O)/C=C/c4c[nH]c5ccccc45)CC3)c(F)c2)C(=O)O1	3.3318	0.25 (≈ 0.478 µM)	
C/C(S)=N/C[C@H]1CN(c2ccc(N3CCN(C(=O)/C=C/c4ccco4)CC3)c(F)c2)C(=O)O1	2.9755	0.5 (≈ 1.06 µM)	
NC(=S)NC[C@H]1CN(c2ccc(N3CCN(C(=O)/C=C/c4ccccc4)CC3)c(F)c2)C(=O)O1	2.6845	1 (≈ 2.07 µM)	
C/C(S)=N/C[C@H]1CN(c2ccc(N3CCN(C(=O)/C=C/c4ccc(O)cc4)CC3)c(F)c2)C(=O)O1		2 (≈ 4.01 µM)	2.3967
CC(=O)NC[C@H]1CN(c2ccc(N3CCN(C(=O)CO)CC3)c(F)c2)C(=O)O1 [EPEREZOLID]	1.9939	4 (≈ 10.1 µM)	
